According to the supplement of paper PMC8671470:

These compounds were tested on MOLM-13 (assay: cell viability (% survival relative to DMSO control, bortezomib = 0%); higher = less cytotoxic). Conditions: 10000 nM; 72 h.
How it was run: (§1)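 After 72 h at 37 °C with 5% CO2, cell viability in 384-well plates was measured by CellTiter-Glo luminescence. The plates held compounds pre-printed at 1, 10, 100, 1000 or 10000 nM in duplicate, and cells from 10 AML and 5 CML lines seeded at densities titrated to linear growth. Percent survival is the duplicate mean, normalised to vehicle as 100% and a 10 µM positive control as 0%.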
O=c1[nH]c(=O)n([C@H]2C[C@H](O)[C@@H](CO)O2)cc1I [Idoxuridine] was tested, and the cell viability was 32.1%.
For CC1Cc2ccccc2N1NC(=O)c1ccc(Cl)c(S(N)(=O)=O)c1 (stereo not drawn) [Indapamide], the cell viability was 86.1%.
For NS(=O)(=O)c1ccc(S(=O)(=O)Nc2cccc3c(Cl)c[nH]c23)cc1 [Indisulam], the cell viability was 7.24%.
COc1ccc2c(c1)c(CC(=O)O)c(C)n2C(=O)c1ccc(Cl)cc1 [Indomethacine] showed a cell viability of 94.5%.
Compound Cn1cc(C[C@@H](N)C(=O)O)c2ccccc21 [Indoximod] has a cell viability of 76.7%.

Each compound was assayed on MV4-11 in the same assay as above. Conditions: 1 nM; 72 h.
How it was run: as §1
OC[C@H]1N[C@@H](c2c[nH]c3c(O)ncnc23)[C@H](O)[C@@H]1O [Forodesine] gave a cell viability of 97.1%.
O=c1oc2c(cc1O)oc(=O)c1cc(O)c(O)c(O)c12 [Galloflavin] showed a cell viability of 100%.
Nc1ccn([C@@H]2O[C@H](CO)[C@@H](O)C2(F)F)c(=O)n1 [Gemcitabine] gave a cell viability of 78.5%.
N[C@@H](CCC(=O)N[C@@H](CS)C(=O)NCC(=O)O)C(=O)O [Glutathione] was tested, and the cell viability was 106%.
In the case of Clc1cc(Cl)c(OCC#CI)cc1Cl [Haloprogin], the cell viability is reported as 109%.
In the case of O=c1[nH]c(=O)n([C@H]2C[C@H](O)[C@@H](CO)O2)cc1I [Idoxuridine], the cell viability is reported as 103%.
In the case of CC1Cc2ccccc2N1NC(=O)c1ccc(Cl)c(S(N)(=O)=O)c1 (stereo not drawn) [Indapamide], the cell viability is reported as 111%.
Compound NS(=O)(=O)c1ccc(S(=O)(=O)Nc2cccc3c(Cl)c[nH]c23)cc1 [Indisulam] has a cell viability of 99.4%.
For COc1ccc2c(c1)c(CC(=O)O)c(C)n2C(=O)c1ccc(Cl)cc1 [Indomethacine], the cell viability was 86.9%.
Cn1cc(C[C@@H](N)C(=O)O)c2ccccc21 [Indoximod] gave a cell viability of 93.3%.

Same assay, conditions: 10 nM; 72 h
In the case of OC[C@H]1N[C@@H](c2c[nH]c3c(O)ncnc23)[C@H](O)[C@@H]1O [Forodesine], the cell viability is reported as 94.5%.
O=c1oc2c(cc1O)oc(=O)c1cc(O)c(O)c(O)c12 [Galloflavin] was tested, and the cell viability was 102%.
Nc1ccn([C@@H]2O[C@H](CO)[C@@H](O)C2(F)F)c(=O)n1 [Gemcitabine] was tested, and the cell viability was -0.0353%.
For N[C@@H](CCC(=O)N[C@@H](CS)C(=O)NCC(=O)O)C(=O)O [Glutathione], the cell viability was 99.2%.
Clc1cc(Cl)c(OCC#CI)cc1Cl [Haloprogin] was tested, and the cell viability was 98%.
O=c1[nH]c(=O)n([C@H]2C[C@H](O)[C@@H](CO)O2)cc1I [Idoxuridine] showed a cell viability of 89.2%.
CC1Cc2ccccc2N1NC(=O)c1ccc(Cl)c(S(N)(=O)=O)c1 (stereo not drawn) [Indapamide] showed a cell viability of 98.4%.
For NS(=O)(=O)c1ccc(S(=O)(=O)Nc2cccc3c(Cl)c[nH]c23)cc1 [Indisulam], the cell viability was 84.3%.
For COc1ccc2c(c1)c(CC(=O)O)c(C)n2C(=O)c1ccc(Cl)cc1 [Indomethacine], the cell viability was 82.1%.
With Cn1cc(C[C@@H](N)C(=O)O)c2ccccc21 [Indoximod] the cell viability was 88.2%.

Same assay, conditions: 100 nM; 72 h
Work on OC[C@H]1N[C@@H](c2c[nH]c3c(O)ncnc23)[C@H](O)[C@@H]1O [Forodesine] yielded a cell viability of 91.7%.
Compound O=c1oc2c(cc1O)oc(=O)c1cc(O)c(O)c(O)c12 [Galloflavin] has a cell viability of 94.5%.
Compound Nc1ccn([C@@H]2O[C@H](CO)[C@@H](O)C2(F)F)c(=O)n1 [Gemcitabine] has a cell viability of -0.464%.
N[C@@H](CCC(=O)N[C@@H](CS)C(=O)NCC(=O)O)C(=O)O [Glutathione] was tested, and the cell viability was 107%.
In the case of Clc1cc(Cl)c(OCC#CI)cc1Cl [Haloprogin], the cell viability is reported as 101%.
For O=c1[nH]c(=O)n([C@H]2C[C@H](O)[C@@H](CO)O2)cc1I [Idoxuridine], the cell viability was 92.6%.
CC1Cc2ccccc2N1NC(=O)c1ccc(Cl)c(S(N)(=O)=O)c1 (stereo not drawn) [Indapamide] gave a cell viability of 102%.
NS(=O)(=O)c1ccc(S(=O)(=O)Nc2cccc3c(Cl)c[nH]c23)cc1 [Indisulam] gave a cell viability of 56.2%.
In the case of COc1ccc2c(c1)c(CC(=O)O)c(C)n2C(=O)c1ccc(Cl)cc1 [Indomethacine], the cell viability is reported as 102%.
For Cn1cc(C[C@@H](N)C(=O)O)c2ccccc21 [Indoximod], the cell viability was 103%.

Same assay, conditions: 1000 nM; 72 h
OC[C@H]1N[C@@H](c2c[nH]c3c(O)ncnc23)[C@H](O)[C@@H]1O [Forodesine] showed a cell viability of 92.3%.
For O=c1oc2c(cc1O)oc(=O)c1cc(O)c(O)c(O)c12 [Galloflavin], the cell viability was 106%.
Nc1ccn([C@@H]2O[C@H](CO)[C@@H](O)C2(F)F)c(=O)n1 [Gemcitabine] gave a cell viability of 0.602%.
Compound N[C@@H](CCC(=O)N[C@@H](CS)C(=O)NCC(=O)O)C(=O)O [Glutathione] has a cell viability of 80.9%.
With Clc1cc(Cl)c(OCC#CI)cc1Cl [Haloprogin] the cell viability was 89%.
In the case of O=c1[nH]c(=O)n([C@H]2C[C@H](O)[C@@H](CO)O2)cc1I [Idoxuridine], the cell viability is reported as 63.6%.
CC1Cc2ccccc2N1NC(=O)c1ccc(Cl)c(S(N)(=O)=O)c1 (stereo not drawn) [Indapamide] showed a cell viability of 97.8%.
With NS(=O)(=O)c1ccc(S(=O)(=O)Nc2cccc3c(Cl)c[nH]c23)cc1 [Indisulam] the cell viability was 0.62%.
Work on COc1ccc2c(c1)c(CC(=O)O)c(C)n2C(=O)c1ccc(Cl)cc1 [Indomethacine] yielded a cell viability of 95.3%.
With Cn1cc(C[C@@H](N)C(=O)O)c2ccccc21 [Indoximod] the cell viability was 85.5%.

Same assay, conditions: 10000 nM; 72 h
In the case of OC[C@H]1N[C@@H](c2c[nH]c3c(O)ncnc23)[C@H](O)[C@@H]1O [Forodesine], the cell viability is reported as 90.3%.
Compound O=c1oc2c(cc1O)oc(=O)c1cc(O)c(O)c(O)c12 [Galloflavin] has a cell viability of 102%.
Nc1ccn([C@@H]2O[C@H](CO)[C@@H](O)C2(F)F)c(=O)n1 [Gemcitabine] gave a cell viability of 0.268%.
N[C@@H](CCC(=O)N[C@@H](CS)C(=O)NCC(=O)O)C(=O)O [Glutathione] showed a cell viability of 106%.
Clc1cc(Cl)c(OCC#CI)cc1Cl [Haloprogin] was tested, and the cell viability was 0.356%.
O=c1[nH]c(=O)n([C@H]2C[C@H](O)[C@@H](CO)O2)cc1I [Idoxuridine] showed a cell viability of 21.7%.
Compound CC1Cc2ccccc2N1NC(=O)c1ccc(Cl)c(S(N)(=O)=O)c1 (stereo not drawn) [Indapamide] has a cell viability of 99.4%.
NS(=O)(=O)c1ccc(S(=O)(=O)Nc2cccc3c(Cl)c[nH]c23)cc1 [Indisulam] showed a cell viability of 0.0378%.
COc1ccc2c(c1)c(CC(=O)O)c(C)n2C(=O)c1ccc(Cl)cc1 [Indomethacine] was tested, and the cell viability was 92.2%.
Work on Cn1cc(C[C@@H](N)C(=O)O)c2ccccc21 [Indoximod] yielded a cell viability of 94.9%.

Each compound was assayed on NOMO-1 in the same assay as above. Conditions: 1 nM; 72 h.
How it was run: as §1
Work on OC[C@H]1N[C@@H](c2c[nH]c3c(O)ncnc23)[C@H](O)[C@@H]1O [Forodesine] yielded a cell viability of 97.9%.
Work on O=c1oc2c(cc1O)oc(=O)c1cc(O)c(O)c(O)c12 [Galloflavin] yielded a cell viability of 91.8%.
With Nc1ccn([C@@H]2O[C@H](CO)[C@@H](O)C2(F)F)c(=O)n1 [Gemcitabine] the cell viability was 103%.
